Literature values, collected in US11564931B2, “Low benzalkonium chloride bimatoprost ophthalmic compositions with effective penetration and preservation properties” (Somerset Therapeutics LLC, priority 2019, dated 2023).

Details: patients starting on monotherapy; Covert D et al. 2006

Row | Compound | Rate of adjunctive medication use [%]
1 | CCNC(=O)CCC/C=C\C[C@@H]1[C@@H](/C=C/[C@@H](O)CCc2ccccc2)[C@H](O)C[C@@H]1O [bimatoprost, (Z)-7-[(1R, 2R, 3R, 5S)-3,5-Dihydroxy-2-[(1E, 3S)-3-hydroxy-5-phenyl-1-pentenyl]cyclopentyl]-5-N-ethylheptenamide] | 23.2
2 | CC(C)OC(=O)CCC/C=C\C[C@@H]1[C@@H](CC[C@@H](O)CCc2ccccc2)[C@H](O)C[C@@H]1O [latanoprost] | 30.2
3 | CC(C)OC(=O)CCC/C=C\C[C@@H]1[C@@H](/C=C/[C@@H](O)COc2cccc(C(F)(F)F)c2)[C@H](O)C[C@@H]1O [travoprost] | 22.5
